Values after ≈ are worked out from the molar mass of the structure shown.
Tests used:
S. aureus [1] = experiment: MIC in bacteriological broth (CLSI VET01-A4); format: cell-based, Staphylococcus aureus
Description: (§1) Minimal inhibitory concentrations (MIC) were determined in bacteriological broth according to Clinical and Laboratory Standard Institute (CLSI) guideline VET01-A4 [1]. The MIC results were interpreted according to the CLSI document VET01-S3 [2].

coa-neg Staph. = experiment: MIC in bacteriological broth (CLSI VET01-A4); format: cell-based, coagulase-negative staphylococci
Description: as §1

Strep. agalactiae = experiment: MIC in bacteriological broth (CLSI VET01-A4); format: cell-based, Streptococcus agalactiae
Description: as §1

Strep. dysgalactiae = experiment: MIC in bacteriological broth (CLSI VET01-A4); format: cell-based, Streptococcus dysgalactiae
Description: as §1

S. uberis = experiment: MIC in bacteriological broth (CLSI VET01-A4); format: cell-based, Streptococcus uberis
Description: as §1

Truep. pyogenes = experiment: MIC in bacteriological broth (CLSI VET01-A4); format: cell-based, Trueperella pyogenes
Description: as §1

S. aureus [2] = experiment: MIC in full cream UHT milk with alamar Blue; format: cell-based, Staphylococcus aureus
Description: (§2) For MIC determination in milk, the in vitro activity was determined by measuring the minimum inhibitory concentrations (MIC) according to CLSI document VET01-A4 [1] using full cream UHT milk as test medium. About 2 h before the end of the incubation 10 μL of alamar Blue® was added to each well of the microdilution trays, resulting in a final concentration of 10% of alamar Blue®. Blue color of the medium indicated no living cells (no bacterial growth) red/pink to white color of the medium indicated living cells (bacterial growth). The MIC results were interpreted according to the CLSI document VET01-S3 [2].

Streptococcus uberis = experiment: Experimental mastitis infection model in lactating cows; format: in vivo; details: oily suspension 200 mg/quarter intramammary, three consecutive times after milking, 21 days observation, FIG. 1
Description: In short, the hind quarters of 10 healthy cows were infected with Streptococcus uberis by intramammary application of 100 bacteria per quarter. At appearance of clinical signs of the challenged quarters (abnormal milk appearance, swollen/hard quarter, pain on palpation) one hind quarter of each cow was treated with an oily suspension of avilamycin at a dose of 200 mg/quarter at three consecutive times after milking. Furthermore, the neighboring infected hint quarter showing clinical signs was mock treated with formulation vehicle at the identical dose volume and schedule. Milk samples were analyzed for S. uberis over a period of 21 days.

[3] = tested on: mastitis-causing pathogens; experiment: Antimicrobial activity against mastitis-causing pathogens (overall statement); format: cell-based; details: broth-dilution assay and milk
Description: as §1, §2

[4] = bacteriological broth, 50 S. aureus isolates tested
[5] = broth, of 50 S. aureus isolates
[6] = bacteriological broth, 30 coa-neg Staph. isolates tested
[7] = broth, of 30 coa-neg Staph. isolates
[8] = bacteriological broth, 30 Strep. agalactiae isolates tested
[9] = broth, of 30 Strep. agalactiae isolates
[10] = bacteriological broth, 29 Strep. dysgalactiae isolates tested
[11] = broth, of 29 Strep. dysgalactiae isolates
[12] = bacteriological broth, 30 S. uberis isolates tested
[13] = broth, of 30 S. uberis isolates
[14] = bacteriological broth, 30 Truep. pyogenes isolates tested
[15] = broth, of 30 Truep. pyogenes isolates

COC[C@H]1O[C@@H](OC2OC[C@@H]3O[C@]4(O[C@H]3[C@H]2OC(=O)C(C)C)O[C@H](C)[C@@](O)(C(C)=O)[C@@H]2OCO[C@H]24)[C@@H](OC)[C@@H](O)[C@@H]1O[C@@H]1O[C@H](C)[C@H](OC)[C@H](O[C@H]2C[C@@]3(C)OC4(C[C@@H](O)[C@H](O[C@H]5C[C@@H](O)[C@H](OC(=O)c6c(C)c(Cl)c(O)c(Cl)c6OC)[C@@H](C)O5)[C@@H](C)O4)O[C@@H]3[C@@H](C)O2)[C@H]1O (some centres unmarked) [avilamycin]
MIC50 (S. aureus [1]; [4]): 2 µg/mL (≈ 1.42 µM) | MIC90 (S. aureus [1]; [4]): 4 µg/mL (≈ 2.85 µM) | Maximum MIC (S. aureus [1]; [4]): 4 µg/mL | Minimum MIC (S. aureus [1]; [4]): 1 µg/mL | Number of isolates with MIC 1 μg/mL (S. aureus [1]; [5]): 5 | Number of isolates with MIC 2 μg/mL (S. aureus [1]; [5]): 19 | Number of isolates with MIC 4 μg/mL (S. aureus [1]; [5]): 26 | MIC50 (coa-neg Staph.; [6]): 2 µg/mL (≈ 1.42 µM) | MIC90 (coa-neg Staph.; [6]): 4 µg/mL (≈ 2.85 µM) | Maximum MIC (coa-neg Staph.; [6]): 32 µg/mL | Minimum MIC (coa-neg Staph.; [6]): 1 µg/mL | Number of isolates with MIC 1 μg/mL (coa-neg Staph.; [7]): 4 | Number of isolates with MIC 2 μg/mL (coa-neg Staph.; [7]): 13 | Number of isolates with MIC 4 μg/mL (coa-neg Staph.; [7]): 11 | Number of isolates with MIC 8 μg/mL (coa-neg Staph.; [7]): 1 | Number of isolates with MIC 32 μg/mL (coa-neg Staph.; [7]): 1 | MIC50 (Strep. agalactiae; [8]): ≤0.063 µg/mL | MIC90 (Strep. agalactiae; [8]): 0.125 µg/mL (≈ 0.089 µM) | Maximum MIC (Strep. agalactiae; [8]): 0.125 µg/mL | Minimum MIC (Strep. agalactiae; [8]): ≤0.063 µg/mL | Number of isolates with MIC 0.125 μg/mL (Strep. agalactiae; [9]): 13 | Number of isolates with MIC ≤0.063 μg/mL (Strep. agalactiae; [9]): 17 | MIC50 (Strep. dysgalactiae; [10]): 0.125 µg/mL (≈ 0.089 µM) | MIC90 (Strep. dysgalactiae; [10]): 0.25 µg/mL (≈ 0.178 µM) | Maximum MIC (Strep. dysgalactiae; [10]): 0.25 µg/mL | Minimum MIC (Strep. dysgalactiae; [10]): ≤0.063 µg/mL | Number of isolates with MIC 0.125 μg/mL (Strep. dysgalactiae; [11]): 23 | Number of isolates with MIC 0.25 μg/mL (Strep. dysgalactiae; [11]): 5 | Number of isolates with MIC ≤0.063 μg/mL (Strep. dysgalactiae; [11]): 1 | MIC50 (S. uberis; [12]): 0.5 µg/mL (≈ 0.356 µM) | MIC90 (S. uberis; [12]): 0.5 µg/mL (≈ 0.356 µM) | Maximum MIC (S. uberis; [12]): 0.5 µg/mL | Minimum MIC (S. uberis; [12]): 0.125 µg/mL | Number of isolates with MIC 0.125 μg/mL (S. uberis; [13]): 1 | Number of isolates with MIC 0.25 μg/mL (S. uberis; [13]): 12 | Number of isolates with MIC 0.5 μg/mL (S. uberis; [13]): 17 | MIC50 (Truep. pyogenes; [14]): ≤0.063 µg/mL | MIC90 (Truep. pyogenes; [14]): ≤0.063 µg/mL | Maximum MIC (Truep. pyogenes; [14]): 0.125 µg/mL | Minimum MIC (Truep. pyogenes; [14]): ≤0.063 µg/mL | Number of isolates with MIC 0.125 μg/mL (Truep. pyogenes; [15]): 1 | Number of isolates with MIC ≤0.063 μg/mL (Truep. pyogenes; [15]): 29 | Activity in milk (S. aureus [2]): maintained its activity | MIC90 against S. aureus compared with MIC90 of penicillin G (S. aureus [2]): significantly lower | Distribution of MIC values: isolates with MIC 0.125 μg/ml (S. aureus [2]; S. aureus (n = 20)): 0 | Distribution of MIC values: isolates with MIC 0.25 μg/ml (S. aureus [2]; S. aureus (n = 20)): 0 | Distribution of MIC values: isolates with MIC 0.5 μg/ml (S. aureus [2]; S. aureus (n = 20)): 1 | Distribution of MIC values: isolates with MIC 1 μg/ml (S. aureus [2]; S. aureus (n = 20)): 1 | Distribution of MIC values: isolates with MIC 2 μg/ml (S. aureus [2]; S. aureus (n = 20)): 1 | Distribution of MIC values: isolates with MIC 4 μg/ml (S. aureus [2]; S. aureus (n = 20)): 16 | Distribution of MIC values: isolates with MIC 8 μg/ml (S. aureus [2]; S. aureus (n = 20)): 1 | Distribution of MIC values: isolates with MIC 16 μg/ml (S. aureus [2]; S. aureus (n = 20)): 0 | Distribution of MIC values: isolates with MIC 32 μg/ml (S. aureus [2]; S. aureus (n = 20)): 0 | Distribution of MIC values: isolates with MIC 64 μg/ml (S. aureus [2]; S. aureus (n = 20)): 0 | Distribution of MIC values: isolates with MIC >64 μg/ml (S. aureus [2]; S. aureus (n = 20)): 0 | Distribution of MIC values: isolates with MIC ≤0.063 μg/ml (S. aureus [2]; S. aureus (n = 20)): 0 | MIC90 (S. aureus [2]; S. aureus (n = 20)): 4 µg/mL (≈ 2.85 µM) | Proportion of quarters free of S. uberis compared to quarters treated with vehicle (Streptococcus uberis): substantially higher | Antimicrobial activity against mastitis-causing pathogens [3]: Good antimicrobial activity

— patent publication US12605396B2, “Methods of treating mastitis with an orthosomycin antimicrobial compound” (Intervet Inc., priority 2020, dated 2026)
